Results on one molecule are retold here after patent publication US12437835B2, “Interrogatory cell-based assays and uses thereof” (Berg LLC, priority 2012, dated 2025).

Entries after “also recorded” stand apart in the source; their conditions may differ.

One test has as its system LDHA. Description: Wet lab validation of LDHA expression in HepG2 cells. Type of test: cell-based. The note with it: HepG2, 50 uM or 100 uM CoQ10, 24 or 48 hours. The protocol: The cell model comprising the above-mentioned cells, wherein the cells were exposed to each condition described above, was additionally interrogated by exposing the cells to an environmental perturbation by treating with Coenzyme Q10. Specifically, the cells were treated with Coenzyme Q10 at 0, 50 μM, or 100 μM.
Cell samples as well as media samples for each cell line with each condition and each Coenzyme Q10 treatment were collected at various times following treatment, including after 24 hours and 48 hours of treatment.
Protein accession number P00338 is LDHA. Wet lab validation of proteomics data were performed for LDHA expression in HepG2 cells (see FIG. 20).

Test [1] relates to human mitochondrial energy metabolism genes. Description: Transcriptional profiling of mitochondrial energy metabolism genes in diabetic cardiomyocytes. The note with it: diabetic drug plus rescue molecule Coenzyme Q10 (T+R) vs untreated (UT). Type of test: cell-based. The protocol: Human cardiomyocytes were subject to conditions simulating an diabetic environment experienced by the disease-relevant cells in vivo. Specifically, the cells were exposed to hyperglycemic conditions and hyperlipidemia conditions. The hyperglycemic condition was induced by culturing cells in media containing 22 mM glucose. The hyperlipidemia condition was induced by culturing the cells in media containing 1 mM L-carnitine, 0.7 mM Oleic acid and 0.7 mM Linoleic acid. […]
Cell samples from each condition with each perturbation treatment were collected at various times following treatment, including after 6 hours of treatment. For certain conditions, media samples were also collected and analyzed.
iProfiling of changes in total cellular protein expression by quantitative proteomics was performed for cell and media samples collected for each condition and with each “environmental perturbation”, i.e, diabetic drug treatment, Coenzyme Q10 treatment or both, using the techniques described above in the detailed description. […] Following data collection (Ct), the final fold change over control was determined using the δCt method as outlined in manufacturer's protocol. […] Functional assays such as Oxygen consumption rate OCR were measured by employing the Seahorse analyzer essentially as recommended by the manufacturer. […]

In test [2] the test system is hyperglycemia conditioned cardiomyocytes. As to the kind of experiment: Mitochondrial oxygen consumption rate in hyperglycemia conditioned cardiomyocytes (Seahorse). Format: cell-based, Human. The note with it: diabetic drug plus Coenzyme Q10 (T1+R or T2+R). As to the method: Human cardiomyocytes were subject to conditions simulating an diabetic environment experienced by the disease-relevant cells in vivo. Specifically, the cells were exposed to hyperglycemic conditions and hyperlipidemia conditions. The hyperglycemic condition was induced by culturing cells in media containing 22 mM glucose. The hyperlipidemia condition was induced by culturing the cells in media containing 1 mM L-carnitine, 0.7 mM Oleic acid and 0.7 mM Linoleic acid.
iProfiling of changes in total cellular protein expression by quantitative proteomics was performed for cell and media samples collected for each condition and with each “environmental perturbation”, i.e, diabetic drug treatment, Coenzyme Q10 treatment or both, using the techniques described above in the detailed description. Transcriptional profiling experiments were carried out using the Biorad cfx-384 amplification system. Following data collection (Ct), the final fold change over control was determined using the δCt method as outlined in manufacturer's protocol. Lipidomics experiments were carried out using mass spectrometry. Functional assays such as Oxygen consumption rate OCR were measured by employing the Seahorse analyzer essentially as recommended by the manufacturer. OCR was recorded by the electrodes in a […] chamber created with the cartridge pushing against the seahorse culture plate. […]

Test [3] concerns HUVEC cells. Description: Endothelial morphology of HUVEC cultures. Format: cell-based, Human. The note with it: 24 hours. As to the method: Effect of CoQ10 on endothelial morphology: Human umbilical vein endothelial cells (HUVEC cells) were treated for 24 hours with a range of concentrations of CoQ10. Drug was applied to confluent cells that closely resemble ‘normal’ cells and also to sub-confluent cells that more closely represent the angiogenic phenotype of proliferating cells. […] The response of sub-confluent endothelial cells to CoQ10 diverged from the confluent cell response (FIG. 52B).

In test [4] the test system is HUVEC cells. Description: HUVEC cell numbers. Type of test: cell-based, Human. As to the method:
(§1) Methods: Human umbilical vein endothelial cell (HUVEC) fate decisions that modulate the angiogenic phenotype were examined in the presence of 100 or 1500 μM CoQ10 or excipient and compared to untreated control cells. Endothelial cell fate assays for apoptosis, proliferation, migration and 3-D tube formation within MATRIGEL® were performed.
(§2) CoQ10 decreases endothelial cell numbers and proliferation: Sub-confluent cultures of HUVEC cells were treated for 72 hours with 100 or 1500 μM CoQ10 and assayed for both cell numbers (FIG. 54A) and proliferation (FIG. 54B) using a propidium iodide incorporation assay (detects G2/M phase DNA).

Test [5] relates to HUVEC cells. Description: HUVEC proliferation (propidium iodide incorporation, G2/M phase). Type of test: cell-based, Human. The note with it: sub-confluent HUVEC, 72 hours, 100 or 1500 μM CoQ10. As to the method:
as §1, §2

For test [6], the system named is HUVEC cells. As to the kind of experiment: Nitric oxide (NO) generation in HUVEC under normoxia and hypoxia. Type of test: cell-based, Human. The note with it: subconfluent and confluent HUVEC, normoxic or hypoxic, 0, 100 or 1500 μM CoQ10. The protocol: (§3) The response of HUVEC cells to normoxia and hypoxia in the presence of absence of CoQ10 was assessed. Specifically, HUVEC cells were grown in subconfluent and confluent cultures under normoxic or hypoxic conditions as described herein. The cells were also exposed to 0, 100, or 1500 μM CoQ10. Nitric oxide (NO) and reactive oxygen species (ROS) levels were determined using methods provided herein.

The subject of test [7] is HUVEC cells. Description: Reactive oxygen species (ROS) generation in HUVEC under normoxia and hypoxia. Type of test: cell-based, Human. The note with it: subconfluent and confluent HUVEC, normoxic or hypoxic, 0, 100 or 1500 μM CoQ10. As to the method:
as §3

Test [8] has as its system HUVEC cells. As to the kind of experiment: HUVEC bioenergetics (Seahorse assays). Type of test: cell-based, Human. The note with it: sub-confluent HUVEC cultures, CoQ10 10, 100, 1500 μM. The protocol:
The bioenergetics of HUVEC cells were assessed in the presence of various concentrations of CoQ10. Specifically, HUVEC cells were grown in subconfluent or confluent conditions in the absence or presence of CoQ10 (10, 100, 1500 μM). Oxygen consumption rates (OCR), both total and mitochondrial, ATP production, and Extra Cellular Acidification Rate (ECAR) were assessed using Seahorse assays.

Test [9] concerns Bcl2. The note with it: melanoma cell, in the presence of VEGF; cited from earlier work.
Test [10] deals with Bcl2. Conditions: normal fibroblast, co-administration of CoQ-10 and VEGF; cited from earlier work.

In the case of `COC1=C(OC)C(=O)C(C/C=C(\C)CC/C=C(\C)CC/C=C(\C)CC/C=C(\C)CC/C=C(\C)CC/C=C(\C)CC/C=C(\C)CC/C=C(\C)CC/C=C(\C)CCC=C(C)C)=C(C)C1=O` [CoQ10, Coenzyme Q10], in the test with LDHA, the LDHA expression levels entry is given as “decreased”. The “transcriptional network and expression of human mitochondrial energy metabolism genes” value in [1] (listed as Coenzyme Q10) is “normalize gene expression and transcription”; in test [1] (listed as rescue molecule), “normalizes gene expression”. For the same molecule, the “mitochondrial OCR (oxygen consumption rate)” value in [2] is “normalized”; in [2] (listed as rescue molecule) it was “normalizes”. Further, the endothelial morphology result in the test with HUVEC cells [3] (confluent cultures, 5000 μM) is “subtle increase in rounded cells”; with HUVEC cells [3] (confluent cultures, increasing concentrations of CoQ10), “closer association, elongation and alignment of ECs”; in the test on HUVEC cells [3] (sub-confluent cultures, 1000 μM CoQ10 and above) it was “visibly unhealthy”. In addition, the visible cell death result with HUVEC cells [3] (sub-confluent cultures, increasing concentrations of CoQ10) was “Increased cell death”. Further, in the test on HUVEC cells [4] (1500 μM CoQ10), the HUVEC cell counts entry was “significantly decreased”. The cell numbers entry in the test on HUVEC cells [4] (sub-confluent HUVEC, 72 hours, 100 or 1500 μM, high concentrations of CoQ10) is given as “significant decrease; also recorded: decreased cell numbers”. Besides, in the test with HUVEC cells [5], the “EC proliferation (G2/M phase cells)” value was “dose-dependent effect; also recorded: potent inhibitor of endothelial proliferation; also recorded: impairs endothelial proliferation”. The “generation of nitric oxide (NO)” value in the test on HUVEC cells [6] was “differential dose dependent generation”. Besides, in the test with HUVEC cells [7], the “generation of reactive oxygen species (ROS)” value is given as “differential dose dependent generation”. In addition, the “mitochondrial OCR” value in the test with HUVEC cells [8] is listed as “reverts mitochondrial OCR to confluent level OCR”. Moreover, the “level of Bcl2” value in the test on Bcl2 [9] is given as “decreased”. In the test with Bcl2 [10], the “levels of Bcl2” value is “no effect”.
